Measurements published in PMC8806947, “β-galactosidase GALA from Bacillus circulans with high transgalactosylation activity” (Bioengineered, 2021).

Columns and labels:
[1] = molecular target: T1, GALA (β-galactosidase from Bacillus circulans) (Niallia circulans, UniProt E5RWQ2); assay: o-nitrophenol release, absorbance at […] nm; format: biochemical; settings: 0.25% oNPG, 20 mM phosphate-citrate pH 6.0, 45 °C, 15 min
T1 construct: gene bga; codon-optimised synthetic gene (galAm) with His-tag, secreted from Pichia pastoris GS115 (pPICZαA); HisTrap and gel filtration; predicted 1703 residues, 190 kDa; glycosylated

[2] = molecular target: T1, GALA (β-galactosidase from Bacillus circulans); assay: HPLC and TLC of hydrolysis and transgalactosylation products; format: biochemical; settings: 200-500 g/L lactose, 0.1 M phosphate-citrate pH 5-7, 30-50 °C; also galactosyl acceptor

T1 sequence (E5RWQ2 24-1737): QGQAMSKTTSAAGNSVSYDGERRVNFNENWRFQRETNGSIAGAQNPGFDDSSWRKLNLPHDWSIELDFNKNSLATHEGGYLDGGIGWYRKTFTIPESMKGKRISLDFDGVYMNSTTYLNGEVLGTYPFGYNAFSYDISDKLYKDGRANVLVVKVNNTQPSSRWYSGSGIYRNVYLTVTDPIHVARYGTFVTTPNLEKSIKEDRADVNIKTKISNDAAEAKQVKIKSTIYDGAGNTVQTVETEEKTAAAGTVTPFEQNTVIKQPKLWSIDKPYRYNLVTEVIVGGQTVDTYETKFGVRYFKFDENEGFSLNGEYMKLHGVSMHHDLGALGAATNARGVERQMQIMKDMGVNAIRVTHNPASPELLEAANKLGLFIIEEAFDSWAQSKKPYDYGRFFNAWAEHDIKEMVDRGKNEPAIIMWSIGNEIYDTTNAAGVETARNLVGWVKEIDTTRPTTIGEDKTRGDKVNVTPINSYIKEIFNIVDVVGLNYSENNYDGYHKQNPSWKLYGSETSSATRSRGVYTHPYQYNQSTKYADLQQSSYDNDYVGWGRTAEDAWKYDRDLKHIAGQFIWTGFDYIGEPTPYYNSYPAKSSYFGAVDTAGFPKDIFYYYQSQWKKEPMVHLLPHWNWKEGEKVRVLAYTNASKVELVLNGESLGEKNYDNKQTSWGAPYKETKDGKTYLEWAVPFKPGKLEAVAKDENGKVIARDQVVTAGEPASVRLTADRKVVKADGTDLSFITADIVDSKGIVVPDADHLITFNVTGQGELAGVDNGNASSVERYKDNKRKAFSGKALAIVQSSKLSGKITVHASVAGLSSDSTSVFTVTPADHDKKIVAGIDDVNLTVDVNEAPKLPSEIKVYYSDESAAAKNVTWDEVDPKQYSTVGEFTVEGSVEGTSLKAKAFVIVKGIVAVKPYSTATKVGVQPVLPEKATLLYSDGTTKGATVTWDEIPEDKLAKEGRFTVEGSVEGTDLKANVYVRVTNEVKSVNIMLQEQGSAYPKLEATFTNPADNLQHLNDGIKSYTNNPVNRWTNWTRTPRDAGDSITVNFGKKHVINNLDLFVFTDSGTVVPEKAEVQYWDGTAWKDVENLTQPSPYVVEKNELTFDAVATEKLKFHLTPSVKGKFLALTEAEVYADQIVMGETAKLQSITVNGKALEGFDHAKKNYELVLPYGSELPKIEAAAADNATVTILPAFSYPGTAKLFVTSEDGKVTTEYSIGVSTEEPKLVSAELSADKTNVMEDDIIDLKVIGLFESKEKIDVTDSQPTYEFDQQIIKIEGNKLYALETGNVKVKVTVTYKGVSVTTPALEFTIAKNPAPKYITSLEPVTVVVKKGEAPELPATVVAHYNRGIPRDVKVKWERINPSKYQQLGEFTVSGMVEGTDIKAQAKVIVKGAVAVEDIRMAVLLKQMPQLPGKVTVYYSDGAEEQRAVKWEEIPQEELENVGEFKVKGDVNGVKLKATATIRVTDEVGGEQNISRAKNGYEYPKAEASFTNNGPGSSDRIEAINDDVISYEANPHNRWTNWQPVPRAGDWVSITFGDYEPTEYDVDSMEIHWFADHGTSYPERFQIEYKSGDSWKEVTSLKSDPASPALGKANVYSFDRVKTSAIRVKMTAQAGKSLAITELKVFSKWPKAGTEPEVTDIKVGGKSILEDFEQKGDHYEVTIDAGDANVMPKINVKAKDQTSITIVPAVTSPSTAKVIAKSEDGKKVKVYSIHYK

| Structure (SMILES) | o-nitrophenol release, absorbance at 420 nm [1] | HPLC and TLC of hydrolysis and transgalactosylation products [2] |
| --- | --- | --- |
| O=[N+]([O-])c1ccccc1O[C@@H]1O[C@H](CO)[C@H](O)[C@H](O)[C@H]1O [O-nitrophenyl-β-D-galactopyranoside] | The experiments were carried out three times using ONPG as the substrate |  |
| OC[C@H]1O[C@@H](O[C@H]2[C@H](O)[C@@H](O)C(O)O[C@@H]2CO)[C@H](O)[C@@H](O)[C@H]1O (some centres unmarked) [lactose] |  | enzymatic transgalactosylation activity of the β-galactosidase, using lactose as the substrate |
